The values below come from patent publication US20240270741A1 (Cogent Biosciences, Inc., priority 2023, published 2024).

Each structure is given as a SMILES string. Where a name gives a salt, the structure may show the parent alone.

For the first assay, the target named is FGFR2 (Homo sapiens, UniProt P21802). In words: FGFR wild type enzyme assay (HTRF KinEASE-TK), FGFR2. The following applies: Enz FGFR2 (nM). (In general: In TR-FRET formats the signal depends on donor and acceptor labels being close together.)
Sequence of FGFR2 (P21802 399-821 limits assumed): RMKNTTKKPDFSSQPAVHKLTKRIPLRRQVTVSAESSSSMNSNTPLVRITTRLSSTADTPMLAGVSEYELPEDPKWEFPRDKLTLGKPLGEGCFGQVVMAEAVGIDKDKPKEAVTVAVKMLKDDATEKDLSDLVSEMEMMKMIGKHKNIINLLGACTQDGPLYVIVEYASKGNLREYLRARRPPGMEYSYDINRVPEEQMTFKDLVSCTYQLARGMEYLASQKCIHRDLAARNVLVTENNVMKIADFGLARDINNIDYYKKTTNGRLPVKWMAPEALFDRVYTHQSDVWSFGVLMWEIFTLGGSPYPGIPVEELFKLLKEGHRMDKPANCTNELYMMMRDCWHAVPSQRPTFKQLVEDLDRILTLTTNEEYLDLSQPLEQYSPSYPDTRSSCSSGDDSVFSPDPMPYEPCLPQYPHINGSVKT
The term IC50 denotes the concentration at which inhibition is half-maximal. The molecule `N#Cc1cnn2cc(-c3cnn(C4CCNCC4)c3)cc(Sc3ncccn3)c12` [Example 60, 6-(1-(piperidin-4-yl)-1H-pyrazol-4-yl)-4-(pyrimidin-2-ylthio)pyrazolo[1,5-a]pyridine-3-carbonitrile, HCl] showed a 50% inhibitory concentration (IC50) of 7 nM.

`Cc1ncccc1Sc1cc(-c2cnn([C@H]3CCCNC3)c2)cn2ncc(C#N)c12` [Example 81, 4-[(2-methyl-3-pyridyl)sulfanyl]-6-[1-[(3S)-3-piperidyl]pyrazol-4-yl]pyrazolo[1,5-a]pyridine-3-carbonitrile] came in with an IC50 of 31 nM. On the same count and under the same terms, the same measure for `Cc1ccc(F)c(Sc2cc(-c3cnn(C4CCNCC4)c3)cn3ncc(C#N)c23)n1` [Example 70, 4-((3-fluoro-6-methylpyridin-2-yl)thio)-6-(1-(piperidin-4-yl)-1H-pyrazol-4-yl)pyrazolo[1,5-a]pyridine-3-carbonitrile, HCl]: 3 nM; for `N#Cc1cnn2cc(-c3cnn([C@H]4CCCNC4)c3)cc(Sc3ccccc3CO)c12` [Example 74, 4-[2-(hydroxymethyl)phenyl]sulfa-nyl-6-[1-[(3S)-3-piperidyl]pyrazol-4-yl]pyrazolo[1,5-a]pyridine-3-carbonitrile]: 6 nM.

The assay is the same for the next values; noted with them: Enz FGFR2 (nM), FGFR2 wild type enzyme.
`CC(=O)N1CC[C@]2(CC[C@H](n3ncc(-c4cc(Sc5ncccc5F)c5c(C#N)cnn5c4)c3C)CC2)C1` [Example 227, 6-(1-((5s,8s)-2-acetyl-2-azaspiro[4.5]decan-8-yl)-5-methyl-1H-pyrazol-4-yl)-4-((3-fluoropyridin-2-yl)thio)pyrazolo[1,5-a]pyridine-3-carbonitrile]: the IC50 is 1 nM. For the molecule `Cc1c(-c2cc(Sc3ncccc3F)c3c(C#N)cnn3c2)cnn1[C@H]1C[C@H](CO)C1` [Example 246, 4-((3-fluoropyridin-2-yl)thio)-6-(1-((1r,3r)-3-(hydroxymethyl)cyclobutyl)-5-methyl-1H-pyrazol-4-yl)pyrazolo[1,5-a]pyridine-3-carbonitrile], the IC50 turned out to be 4 nM. On the same count and under the same terms, then `Cc1c(-c2cc(Sc3ncccc3F)c3c(C#N)cnn3c2)cnn1C1CCN(C(=O)[C@H](C)O)CC1` [Example 194, (S)-4-((3-fluoropyridin-2-yl)thio)-6-(1-(1-(2-hydroxypropanoyl)piperidin-4-yl)-5-methyl-1H-pyrazol-4-yl)pyrazolo[1,5-a]pyridine-3-carbonitirle], with 2 nM; and `Cc1c(-c2cc(Sc3ncccc3F)c3c(C#N)cnn3c2)cnn1C1CCNC(C)C1` (stereo not shown) [Example 252, 4-((3-fluoropyridin-2-yl)thio)-6-(5-methyl-1-(2-methylpiperidin-4-yl)-1H-pyrazol-4-yl)pyrazolo[1,5-a]pyridine-3-carbonitrile], with 1 nM. Regarding `CNC1CC2(C1)CC(n1ncc(-c3cc(Sc4ncccc4F)c4c(C#N)cnn4c3)c1C)C2` (stereo not shown) [Example 211, 4-((3-fluoropyridin-2-yl)thio)-6-(5-methyl-1-(6-(methylamino)spiro[3.3]hep-tan-2-yl)-1H-pyrazol-4-yl)pyrazolo[1,5-a]pyridine-3-carbonitrile], the half-inhibitory concentration (IC50) worked out at 1 nM. For the molecule `Cc1c(-c2cc(Sc3ccccc3C#N)c3c(C#N)cnn3c2)cnn1[C@H]1CC[C@@H](NC(C)C)CC1` [Example 251], the concentration for half-maximal inhibition (IC50) came to 0.5 nM. Take `Cc1c(-c2cc(Sc3ncccc3F)c3c(C#N)cnn3c2)cnn1[C@H]1CC[C@H](O)CC1` [Example 185, 4-((3-fluoropyridin-2-yl)thio)-6-(1-((1r,4r)-4-hydroxycyclohexyl)-5-methyl-1H-pyrazol-4-yl)pyrazolo[1,5-a]pyridine-3-carbonitrile]: the IC50 worked out at 1 nM.

Staying with this assay, now noted: Enz FGFR2 (nM), FGFR2 wild type enzyme assay.
Take `N#Cc1cc(F)ccc1Sc1cc(-c2ccc(N3C[C@@H](O)[C@@H](O)C3)nc2)cn2ncc(C#N)c12` [Example 628, 4-((2-cyano-4-fluorophenyl)thio)-6-(6-((3R,4S)-3,4-dihydroxypyrrolidin-1-yl)pyridin-3-yl)pyrazolo[1,5-a]pyridine-3-carbonitrile]: it took 1 nM to reach half-maximal inhibition (IC50). Still for that read-out and setting: then `N#Cc1cnn2cc(-c3cn([C@H]4CCNC4)nn3)cc(Sc3ncccc3F)c12` [Example 465, (S)-4-((3-fluoropyridin-2-yl)thio)-6-(1-(pyrrolidin-3-yl)-1H-1,2,3-triazol-4-yl)pyrazolo[1,5-a]pyridine-3-carbonitrile], with 11 nM; and `Cc1nn([C@H]2CC[C@@H](N(C)C)CC2)c(C)c1-c1cc(Sc2ccccc2C#N)c2c(C#N)cnn2c1` [Example 337, 4-((2-cyanophenyl)thio)-6-(1-((1s,4s)-4-(dimethylamino)cyclohex-yl)-3,5-dimethyl-1H-pyrazol-4-yl)pyrazolo[1,5-a]pyridine-3-carbonitrile], with 3 nM. Regarding `CC(=O)N1CCN(c2nnc(-c3cc(Sc4ccccc4C#N)c4c(C#N)cnn4c3)s2)CC1` [Example 600, 6-(5-(4-acetylpiperazin-1-y)-1,3,4-thiadiazol-2-yl)-4-((2-cyanophenyl)thio)pyrazolo [1,5-a]pyridine-3-carbonitrile], the midpoint of inhibition, the IC50, lay at 6 nM. Molecule `Cc1nn([C@H]2CC[C@H](O)CC2)cc1-c1cc(Sc2ccc(F)cc2C#N)c2c(C#N)cnn2c1` [Example 443, 4-((2-cyano-4-fluorophenyl)thio)-6-(1-((1r,4r)-4-hydroxycyclohexyl)-3-methyl-1H-pyrazol-4-yl)pyrazolo[1,5-a]pyridine-3-carbonitrile] had a half-maximal inhibitory concentration (IC50) of 4 nM. `N#Cc1ccccc1Sc1cc(-c2cnn(CCO)c2)cn2ncc(C#N)c12` [Example 566, 4-((2-cyanophenyl)thio)-6-(1-(2-hydroxyethyl)-1H-pyrazol-4-yl)pyrazolo[1,5-a]pyridine-3-carbonitrile] returned an IC50 of 2 nM. `N#Cc1ccccc1Sc1cc(-c2cnn([C@H]3CCCC[C@H]3O)c2)cn2ncc(C#N)c12` [Example 599, 4-((2-cyanophenyl)thio)-6-(1-((1S,2R)-2-hydroxycyclohexyl)-1H-pyrazol-4-yl)pyrazolo[1,5-a]pyridine-3-carbonitrile] gave a half-inhibitory concentration (IC50) of 2 nM.

With `COC(=O)N[C@]1(C)CC[C@H](n2ncc(-c3cc(Sc4ccc(F)cc4C#N)c4c(C#N)cnn4c3)c2C)CC1` [Example 364, methyl ((1s,4s)-4-(4-(3-cyano-4-((2-cyano-4-fluorophenyl)thio)pyrazolo [1,5-a]pyridin-6-yl)-5-methyl-1H-pyrazol-1-yl)-1-methylcyclohexyl)carba-mate], the IC50 came out at 3 nM. The same measure, in the same setting: then `Cn1cc(-c2cc(Sc3ccccc3C#N)c3c(C#N)cnn3c2)ccc1=O` [Example 638, 4-((2-cyanophenyl)thio)-6-(1-methyl-6-oxo-1,6-dihydropyridin-3-yl)pyrazolo[1,5-a]pyridine-3-carbonitrile], with 18 nM.

The molecule `C#Cc1cnn2cc(-c3cnn(C4CCN(C(=O)CO)CC4)c3C)cc(Sc3ccc(F)cn3)c12` [Example 340, 1-(4-(4-(3-ethynyl-4-((5-fluoropyridin-2-yl)thio)pyrazolo[1,5-a]pyridin-6-yl)-5-methyl-1H-pyrazol-1-yl)piperidin-1-yl)-2-hydroxyethan-1-one] came in with an IC50 of 7.5 nM.

For the molecule `CN1CCC[C@H](n2cc(-c3cc(Sc4ccccc4C#N)c4c(C#N)cnn4c3)cn2)C1` [Example 515, (S)-4-((2-cyanophenyl)thio)-6-(1-(1-methylpiepridin-3-yl)-1H-pyrazol-4-yl)pyrazolo[1,5-a]pyridine-3-carbonitrile], the IC50 came to 1 nM.
